Reference: patent publication US20170298209A1, “USE OF A QUINONE COMPOUND IN BUILDING MATERIALS” (Arkion Life Sciences, LLC, priority 2014, published 2017)

Legend:
[1] = Solubility of the quinone compound in aqueous solution / solvents; type: physicochemical
Text: The quinone compound can be applied to the substrate in the form of a solution. The solution can be an aqueous or semi-aqueous solution. The quinone compound can be soluble or semi-soluble in the solution. Depending on the pH of the solution the quinone compound can be soluble or partially soluble. The partially soluble quinone can exist as either suspended crystalline particles, fine particles, colloidal particles, etc. […] This compound can exist in solution as particles, crystals, colloids, etc. In some embodiments, the semi-aqueous or non-aqueous solutions containing suitable particles, crystals, colloids, etc. can be used to achieve penetration of a quinone compound into and under the surface of a substrate.
(§1) A power pole made from southern yellow pine is treated with a sodium salt of 9,10 dihyroxyanthracene (also known as AHQ or anthrahydroquinone) to render the pole resistant to pest and/or fungal damage. The sodium salt of 9,10 dihyroxyanthracene is stable in an oxygen free and high pH environment (e.g., above pH 11). In the high pH solution, the compound has a solubility of around 10% (wt/v). A 10% solution of AHQ is prepared in an aqueous solution having a pH of about 12. The pole is soaked in the bath of 10% AHQ for about 20-30 minutes at 70-80° C. with little or no air exposure. A portion of the AHQ penetrates into the top layer of the pole. The depth of penetration can range from 1 mm to 200 mm.
(§2) After soaking, the pole is transferred to a water tank where the surface would be neutralized. The water having a nominal pH of about 7. Alternatively, the pole is dried in air without rinsing. AHQ is unstable in the presence of air (e.g., oxygen) unless it is maintained in a high pH solution. If exposed to a lower pH or air (e.g., oxygen), the AHQ can be converted to 9,10 anthraquinone (also known as AQ). AQ is insoluble in almost every solvent including water. Therefore, AQ precipitates out of solution and becomes trapped in the top layer of the pole. AQ forms both on the surface and inside the wood fibers of the upper layers of the pole. This outer layer of pole is now both termite and woodpecker proof. Because anthraquinones can be effective fungicides, the pole is now also fungi proof.

[2] = Stability of AHQ towards air (oxygen) and pH; type: physicochemical
Protocol: as §1
as §2, with “This outer layer of pole is now both termite and woodpecker proof. Because anthraquinones can be effective fungicides, the pole is now also fungi proof.” left out

Pileated woodpeckers = test: Caged Pileated woodpecker trials (two-choice then one-choice test) with treated and untreated utility pole sections; type: in vivo, Pileated woodpecker (Dryocopus pilealus); settings: poles treated with AHQ versus untreated poles; FIGS. 2-4
Protocol: Overview. A series of caged Pileated woodpecker trials are conducted using power pole segments both untreated and treated with a quinone. The treatment segments contain the quinone compound in a range of concentrations. The quinone compound is also applied by either painting or soaking. The quinone compound is applied in a high pH solution (i.e., in a water soluble form). Thereafter, the segments are treated with a lower pH solution to convert the quinone to a water insoluble form. The bird's preference to nest building excavation for each segment is measured. Both the soaked and painted segments show lower incidence of nesting evacuation. […]
The initial placement of the treated and the untreated poles in each enclosure was randomly determined. […] At the beginning of each test day, starting on day 2 (0800), woodpecker damage to each pole was measured by collecting and weighing the wood chips that were removed. […] The camera recorded woodpecker activity on poles for during the first two hours of each day during the test period. […]
The weight of wood chips removed by Pileated woodpeckers follow a three-factor repeated measures design, where observations are repeated on each bird for all three factors: treatment (chemical) time (pre and post-treatment), and pole (control and treated)). All data was analyzed as mixed liner models. […]

## O=C1c2ccccc2C(=O)c2ccccc21 [AQ, 9,10 anthraquinone]
[1]
  solubility in solvents: insoluble

## [Na+].[Na+].[O-]c1c2ccccc2c([O-])c2ccccc12 [AHQ, sodium salt of 9,10 dihyroxyanthracene]
[2]; oxygen free and high pH environment (e.g., above pH 11)
  stability: stable
[2]; presence of air (e.g., oxygen), unless maintained in a high pH solution
  stability: unstable
Pileated woodpeckers
  weight of wood chips removed from poles: surprisingly less than the weight of wood chips removed from untreated poles
[1]; high pH (e.g., pH 11 or more)
  solubility in aqueous solutions: readily soluble
[1]; in the high pH solution (e.g., above pH 11)
  solubility: around 10 % (wt/v)

## Oc1c2ccccc2c(O)c2ccccc12 [9,10-anthrahydroquinone]
[1]; slightly basic or neutral pH values
  solubility in aqueous solutions: only slightly soluble or insoluble
